{"source": "paper PMC9569768", "about": "“Selective Anti-Leishmanial Strathclyde Minor Groove Binders Using an N-Oxide Tail-Group Modification” (International Journal of Molecular Sciences, 2022)", "key": {"[1]": {"system": "bloodstream form T. b. brucei (Lister 427)", "assay": "Anti-Trypanosoma alamarBlue assay", "type": "cell-based", "procedure": "The bloodstream form T. b. brucei (Lister 427) was cultured in HMI-11 medium (Gibco) supplemented with 10% heat-inactivated FBS (Gibco), at 37 °C in a humidified 5% CO2 environment.\nThe EC50 values were determined using the in vitro alamarBlue assay. T. b. brucei parasites (2 × 10^4 cells per mL), were seeded into serial dilutions of the test compounds to a final volume of 200 μL and incubated for 48 h, after which 20 μL of 0.49 mM resazurin dye (Sigma-Aldrich, St. Louis, MO, USA) was added and the cells were incubated for a further 24 h. The reduction of resazurin was measured using a fluorimeter (FLUOstar Optima, BMG Labtech, Ortenberg, Germany) at 544 nm excitation and 590 nm emission wavelengths. The EC50 values were determined using Prism 5 software (GraphPad, San Diego, CA, USA). All experiments were carried out on at least three independent occasions."}, "hERG ion channel [2]": {"molecular_target": "T1, hERG ion channel (Homo sapiens, UniProt Q12809)", "T1 construct": "expressed in transfected cells; host or cells: HEK293 cells (gift of Dr. J. Mitcheson, University of Leicester)", "T1 sequence (Q12809 whole entry)": "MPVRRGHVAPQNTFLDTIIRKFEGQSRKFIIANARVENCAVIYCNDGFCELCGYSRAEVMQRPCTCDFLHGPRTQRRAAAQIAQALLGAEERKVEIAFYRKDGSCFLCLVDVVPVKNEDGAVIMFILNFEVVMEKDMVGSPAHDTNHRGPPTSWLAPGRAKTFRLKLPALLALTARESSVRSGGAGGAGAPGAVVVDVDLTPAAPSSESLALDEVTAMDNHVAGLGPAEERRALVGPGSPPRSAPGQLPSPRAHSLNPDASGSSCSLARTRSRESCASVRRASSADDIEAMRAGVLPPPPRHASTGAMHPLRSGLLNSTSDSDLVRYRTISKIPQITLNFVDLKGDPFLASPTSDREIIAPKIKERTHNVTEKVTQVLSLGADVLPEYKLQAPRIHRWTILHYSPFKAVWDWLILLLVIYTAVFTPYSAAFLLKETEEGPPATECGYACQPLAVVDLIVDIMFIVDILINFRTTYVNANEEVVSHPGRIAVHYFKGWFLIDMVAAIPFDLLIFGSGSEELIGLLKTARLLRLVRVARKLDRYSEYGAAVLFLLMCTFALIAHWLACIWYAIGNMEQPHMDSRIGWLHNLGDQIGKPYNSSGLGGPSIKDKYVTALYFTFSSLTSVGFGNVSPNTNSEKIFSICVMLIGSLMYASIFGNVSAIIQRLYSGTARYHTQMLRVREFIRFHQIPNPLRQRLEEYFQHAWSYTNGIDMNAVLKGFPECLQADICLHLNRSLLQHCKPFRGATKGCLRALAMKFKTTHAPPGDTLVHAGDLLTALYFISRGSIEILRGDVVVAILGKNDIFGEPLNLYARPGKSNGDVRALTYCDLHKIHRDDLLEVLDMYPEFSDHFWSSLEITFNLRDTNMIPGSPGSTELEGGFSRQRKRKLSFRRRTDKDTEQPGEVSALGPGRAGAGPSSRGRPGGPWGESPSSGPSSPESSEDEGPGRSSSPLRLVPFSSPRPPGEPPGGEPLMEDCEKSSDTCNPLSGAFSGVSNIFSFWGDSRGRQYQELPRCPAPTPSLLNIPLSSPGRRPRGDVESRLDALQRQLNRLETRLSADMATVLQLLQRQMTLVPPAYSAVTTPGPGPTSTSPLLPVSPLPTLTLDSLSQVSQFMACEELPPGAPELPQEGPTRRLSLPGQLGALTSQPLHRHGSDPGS", "assay": "hERG cell-binding assay, [3H]-astemizole displacement in hERG-transfected HEK293 cells", "details": "compounds at 10 μM", "procedure": "hERG-transfected HEK293 cells were kindly gifted by Dr. J. Mitcheson, University of Leicester. The cell cultures were maintained in Gibco Dulbecco’s Modified Eagle Medium (D-MEM) + GlutaMAX1^TM medium supplemented with 10% foetal bovine serum ([…]), 1% penicillin–streptomycin and 0.8% Geneticin in a Sanyo humidified incubator (37 °C, 5% CO2). Once at 80–90% confluency, the cells were lifted using a PBS-based, enzyme-free Cell Dissociation Buffer. The cell suspension was counted using a Bright Line Haemocytometer and centrifuged at 1000 rpm for 5 min, and the supernatant discarded. The pellet was resuspended in ice-cold Tris-HCl, pH 7.4 (20 mM), with 1% phenylmethylsulfonyl fluoride (PMSF). […]\n[^3H]-Astemizole binding in hERG-transfected HEK293 cells was performed in a […] total volume according to the following conditions: cells (~200,000 cells per assay tube, […]), [^3H]- astemizole (0.5 nM, […]), incubation buffer (10 mM HEPES, pH 7.4, 130 mM NaCl, 5 mM KCl, 0.8 mM MgCl2, 10 mM glucose, 0.1% BSA, 100 mL) for the total binding or drug compound ([…], 100 mL) for the single-point assay. Non-specific binding was determined using nonradiolabelled astemizole ([…], 100 mL). […] The radioactivity retained on the filters (pre-soaked in 0.5% PEI) was measured via counting in scintillation fluid (4 mL, Tri-Carb 1500 Packard; Emulsifier-Safe)."}, "S. aureus ATCC 43300": {"system": "S. aureus ATCC 43300", "assay": "Antibacterial assay (MIC, broth dilution)", "type": "cell-based", "details": "Staphylococcus aureus, read-out: S. aureus MIC", "procedure": "The inhibition of bacterial growth was determined by OD600, using a Tecan Infinite M Nano plate reader. The percentage of growth inhibition was calculated for each well, using the negative control (medium only) and positive control (bacteria without inhibitors) on the same plate. […] Each MIC determination was carried out in triplicate, on separate days."}, "d(5′-CGCATATATGCG-3′)": {"system": "d(5′-CGCATATATGCG-3′)", "assay": "UV-Vis DNA thermal melting, short DNA oligo", "type": "binding", "details": "2 MGB: 1 DNA, 10 mM PBS pH 7.4, 50 mM NaCl", "procedure": "The DNA oligonucleotide sequence 5′-[…]-3′ was purchased in lyophilised form from Alpha DNA, Canada, and used without further purification, with purity assessed via NMR. The DNA oligomer was melted at a rate of 0.5 °C/min in 10 mM PBS buffer solution (pH 7.4) with 50 mM NaCl on a Cary 300 BIO UV–visible spectrophotometer fitted with a Peltier temperature controller. The programs were set and the data were processed using Cary WinUV software. The duplex oligomer was made to a concentration of 6 × 10^−6 M, heated to 90 °C and allowed to cool to room temperature unaided. This was mixed with sufficient S-MGB to give the appropriate ratio of 2 MGB: 1 DNA. For the reference melting temperature, no S-MGB was added. Samples were heated from 10 °C to 90 °C and cooled from 90 °C to 10 °C, with the spectra being recorded at 260 nm during both of these cycles. The melting temperatures (Tm) of the duplex oligomers were determined by fitting a sigmoidal function using a Boltzmann distribution in OriginPro."}, "[3]": {"system": "L. donovani LV82 luc1 (MHOM/ET/67:LV82)", "assay": "Anti-Leishmania assay, intracellular amastigotes in bone marrow-derived macrophages, luciferase readout", "type": "cell-based", "details": "read-out: L. donovani IC50", "procedure": "The compounds were screened in vitro for their antileishmanial activity against the intracellular amastigote stage. Briefly, bone marrow-derived macrophages (0.5 × 10^5 cells per well) were infected using a 20:1 host cell: parasite ratio with luciferase-expressing L. donovani LV82 luc1 (MHOM/ET/67:LV82). […] Amphotericin B solution was used as a positive control and was used at a starting concentration of 1 μM. The medium was removed from each sample at 72 h post-infection and replaced with 150 μL luciferin solution (150 μg mL^−1 luciferin in serum-free medium). The amount of bioluminescent signal emitted/well was determined and used to calculate the mean suppression in the bioluminescent signal for each test sample compared to the mean control values. The EC50 values were calculated and the mean EC50 was calculated from the three separate experiments."}, "[4]": {"system": "bloodstream form T. b. brucei (Lister 427)", "parameters": "method as in PMID 34447938", "details": "data previously reported ref 19; cited from earlier work"}, "hERG ion channel [5]": {"molecular_target": "T1, hERG ion channel", "parameters": "method as in PMID 22948178", "details": "compounds at 10 μM; data previously reported ref 20; cited from earlier work"}, "[6]": {"system": "DNA sequence 5′-CGCATATATGCG-3′", "assay": "Native mass spectrometry of DNA binding stoichiometry", "details": "9 μM DNA, 100 μM S-MGB, 150 mM ammonium acetate", "procedure": "DNA sample preparation: The DNA oligonucleotide sequence 5′-[…]-3′ was purchased in lyophilised form from Alpha DNA, Montreal, Canada, and used without further purification; its purity was assessed via NMR. We prepared 100 μM stock solutions of DNA with 150 mM ammonium acetate buffer solution (Fisher Scientific, Loughborough, Leicestershire, UK) and 2 mM potassium chloride solution (Fisher Scientific, Loughborough, Leicestershire, UK). This solution was annealed at 90 degrees for 10 min and allowed to cool to room temperature. A total of 10 mM S-MGB stock in 100% DMSO (Sigma-Aldrich, St. Louis, MO, USA) was diluted to a 1 mM S-MGB solution with 150 mM ammonium acetate. The final samples were prepared from this solution to yield final concentrations of 9 μM DNA, 100 μM KCl, 100 μM S-MGB and 1% DMSO. DNA solutions containing no S-MGB included 1% DMSO and were used as controls.\nMass spectrometry measurements: Native mass spectrometry experiments were carried out using a Synapt G2Si instrument (Waters, Manchester, UK) with a nanoelectrospray ionisation source (nESI). Mass calibration was performed using a separate infusion of NaI cluster ions. […]"}, "genomic DNA from salmon": {"system": "genomic DNA from salmon", "assay": "UV-Vis DNA thermal melting, genomic DNA", "type": "binding", "details": "10 µM S-MGB, 0.02 mg/mL salmon gDNA", "procedure": "Salmon DNA (D1626, Sigma-Aldrich) at 1 mg/mL in 1 mM phosphate buffer (pH 7.4) containing 0.27 mM KCl and 13.7 mM NaCl (P4417, Sigma-Aldrich) was annealed at 90 °C for 10 min. MGB-BP-3 at 10 mM in DMSO was diluted with the same phosphate buffer, and combined with the salmon DNA stock, to yield a single sample with 10 µM S-MGB and 0.02 mg/mL gDNA in 1 mM phosphate buffer containing 0.27 mM KCl and 13.7 mM NaCl. Control samples containing only MGB-BP-3 or gDNA were prepared, respectively. The samples were melted at a rate of 0.5 °C/min from 45 °C to 90 °C, with spectra recorded at 260 nm on a UV-1900 UV-vis spectrophotometer fitted with a Peltier temperature controller (Shimadzhu, Kyoto, Japan), using LabSolutions (Tm Analysis) software. The melting temperatures (Tms) of the MGB-BP-3:DNA complexes were determined by fitting a sigmoidal function using a Boltzmann distribution in OriginPro. Two independent experiments were carried out and the values quoted with an error no worse than ±0.5 °C."}, "[7]": {"details": "LUC1, intracellular amastigotes, 72 h post-infection, mean of 3 experiments"}}, "note": "Read-outs that look alike come from different tables or passages of the source. Marks after values point to notes of the source that are not given here."}
{"compound": "COc1ccc(/C=C/c2ccc(C(=O)Nc3cc(C(=O)Nc4cc(C(=O)NCC[N+]5([O-])CCOCC5)n(C)c4)n(C)c3)cn2)cc1", "note": "[compound 207]", "values": [{"measurement": "MIC", "setting": "[1]", "result": 12.5, "unit": "µM"}, {"measurement": "hERG % displacement of [3H]-astemizole", "setting": "hERG ion channel [2]", "result": 45, "unit": "%"}, {"measurement": "MIC", "setting": "S. aureus ATCC 43300; ATCC43300, 18 h, 37 °C", "result": "> 100", "unit": "µM"}, {"measurement": "ΔTm, DNA melting temperature increase", "setting": "d(5′-CGCATATATGCG-3′)", "result": 1, "unit": "°C"}, {"measurement": "IC50", "setting": "[3]; [7]", "result": "3.1 ± 1", "unit": "µM"}]}
{"compound": "COc1cccc(/C=C/c2ccc(C(=O)Nc3cc(C(=O)Nc4cc(C(=O)NCC[N+]5([O-])CCOCC5)n(C)c4)n(C)c3)cc2)c1", "note": "[compound 206]", "values": [{"measurement": "MIC", "setting": "[1]", "result": 6.25, "unit": "µM"}, {"measurement": "hERG % displacement of [3H]-astemizole", "setting": "hERG ion channel [2]", "result": 44, "unit": "%"}, {"measurement": "MIC", "setting": "S. aureus ATCC 43300; ATCC43300, 18 h, 37 °C", "result": "> 100", "unit": "µM"}, {"measurement": "ΔTm, DNA melting temperature increase", "setting": "d(5′-CGCATATATGCG-3′)", "result": 1, "unit": "°C"}, {"measurement": "IC50", "setting": "[3]; [7]", "result": "2.4 ± 0.3", "unit": "µM"}]}
{"compound": "Cn1cc(NC(=O)c2cc(NC(=O)c3cc(NC=O)cn3C)cn2C)cc1C(=O)NCCC(=N)N", "note": "[compound 3]", "values": [{"measurement": "T. b. brucei MIC", "setting": "[4]", "result": "<0.19 * μM"}, {"measurement": "hERG % displacement of [3H]-astemizole", "setting": "hERG ion channel [5]", "result": "64 ** %"}, {"measurement": "MIC", "setting": "S. aureus ATCC 43300; ATCC43300, 18 h", "result": 0.78, "unit": "µM"}, {"measurement": "ΔTm, DNA melting temperature increase", "setting": "d(5′-CGCATATATGCG-3′)", "result": 17, "unit": "°C"}, {"measurement": "IC50", "setting": "[3]; LUC1, 72 h", "result": "5.1 ± 0.7", "unit": "µM"}]}
{"compound": "N=C(N)c1ccc(-c2cc3ccc(C(=N)N)cc3[nH]2)cc1", "note": "[compound 2]", "values": [{"measurement": "T. b. brucei MIC", "setting": "[4]", "result": "1.56 * μM"}, {"measurement": "hERG % displacement of [3H]-astemizole", "setting": "hERG ion channel [5]", "result": "58 ** %"}, {"measurement": "MIC", "setting": "S. aureus ATCC 43300; ATCC43300, 18 h, 37 °C", "result": 3.12, "unit": "µM"}, {"measurement": "ΔTm, DNA melting temperature increase", "setting": "d(5′-CGCATATATGCG-3′)", "result": 15, "unit": "°C"}, {"measurement": "IC50", "setting": "[3]; [7]", "result": "5.7 ± 0.4", "unit": "µM"}]}
{"compound": "Cn1cc(NC(=O)c2cc(NC(=O)c3ccc(/C=C/c4cnc5ccccc5c4)cc3)cn2C)cc1C(=O)NCCN1CCOCC1", "note": "[S-MGB-3, 1-methyl-N-[1-methyl-5-({[2-(4-morpholinyl)ethyl]amino}carbonyl)-1H-pyrrol-3-yl]-4-({4-[(E)-2-(3-quinolinyl)ethenyl]benzoyl}amino)-1H-pyrrole-2-carboxamide]", "values": [{"measurement": "binding stoichiometry to double-stranded DNA by nMS", "setting": "[6]", "result": "selectively bind to double-stranded DNA as a dimer only"}, {"measurement": "binding stoichiometry to double-stranded DNA by nMS", "setting": "[6]; listed as S-MGB-BP-3", "result": "bind 2xS-MGB molecules"}, {"measurement": "Tm increase", "setting": "genomic DNA from salmon", "result": 12.6, "unit": "°C"}, {"measurement": "Melting Temperature of gDNA + S-MGB complex", "setting": "genomic DNA from salmon; gDNA alone 69.6 ± 0.3", "result": "82.2 ± 0.1", "unit": "°C"}]}
{"compound": "N=C(N)c1ccc(OCCCCCOc2ccc(C(=N)N)cc2)cc1", "note": "[compound 1]", "values": [{"measurement": "T. b. brucei MIC", "setting": "[4]", "result": "0.78 * μM"}, {"measurement": "MIC", "setting": "S. aureus ATCC 43300; ATCC43300, 18 h, 37 °C", "result": 50, "unit": "µM"}, {"measurement": "ΔTm, DNA melting temperature increase", "setting": "d(5′-CGCATATATGCG-3′)", "result": 11, "unit": "°C"}, {"measurement": "IC50", "setting": "[3]; [7]", "result": "3.5 ± 0.1", "unit": "µM"}]}
